Data published in patent publication US8399440B2, “Disease modifying anti-arthritic activity of 2-methoxyestradiol” (EntreMed, Inc., priority 2006, dated 2013).

Columns and labels:
[1] = system: Arthrogen Collagen MAb-Induced Arthritis; assay: Arthrogen collagen MAb-induced arthritis (Arthrogen-CIA model of RA); type: in vivo, Mouse (Balb/C)
[2] = Steady-state PK in study SMP05-010; type: in vivo, Mouse (Balb/C)
[3] = system: Adjuvant-Induced Arthritis (Adoptive Transfer Model); assay: Adjuvant-induced arthritis, adoptive transfer model; type: in vivo, Rat (Lewis); details: Dalhousie Study #2; 3, 30 mg/kg/d SC
[4] = system: PMNL migration to dermal inflammatory reactions; assay: 51Cr-labeled PMNL migration to dermal inflammatory reactions; type: in vivo, Rat (Lewis)
Excerpt: Rat blood PMNL were isolated from a donor arthritic rat by hydroxyethyl starch (Hespan; Dupont Merck, Wilmington, Del.) exchange transfusion performed through a needle inserted in a femoral vein. The exchanged blood was collected into heparin and acid-citrate-dextrose (ACD, formula A; Fenwal-Travenol, Malton, ON) and the leukocyte-rich plasma was harvested during 1 g sedimentation of red blood cells. The PMNL were then isolated by centrifugation on discontinuous Percoll density gradients of 63% Percoll above 74% Percoll with 10% autologous plasma and calcium and magnesium-free Tyrode's solution (TyS^-/-) for the balance of the suspending medium. […] After the cells were washed, they were injected i.v. into rats at a dose of 10^7 51Cr-labeled PMNL per animal bearing approximately 1-2×10^5 cpm. These cells were allowed to circulate and migrate for 2 h prior to sacrifice of the rats. […] List Biologicals, Campbell, Calif.) or zymosan-activated serum (rat) as a source of […].^22 2 h before sacrifice, administered in the doses indicated at the same time as the i.v. injection of radiolabeled PMNL. The accumulation of PMNL in these sites was quantified by biopsy of the injection sites using a 12-mm punch biopsy taken following sacrifice of the animals. At the time the rats were killed, cardiac blood was obtained to measure the blood leukocyte count and the leukocyte and plasma associated radioactivity. Joints were dissected and segments of limbs sectioned to include carpal, metacarpal, […] metatarsal joints for analysis as previously reported (Issekutz et al. Lab Invest. (1991), 64:656-63 and Issekutz et al. Arthritis Rheum. (2001), 44:1428-37). The content of ^51Cr in the joints, as well as in dermal skin sites and internal organs, was determined with a Wallac LKB 1280 gamma counter (Fisher Scientific, Nepean, ON). Accumulated isotope in the tissue was expressed as cpm/10^6 cpm injected i.v. In the same rats, the migration of PMNL to dermal inflammatory reactions was measured, these reactions being initiated at the time of radiolabeled PMNL injection. Thus the migration quantitated the acute reaction during the first two hours of the lesions.

[5] = system: joint synovium and articular cartilage; assay: Joint histology and cartilage damage (H&E, safranin O); type: in vivo, Rat (Lewis)
Protocol: (§1) Tissue samples, including joints, were fixed in 10% phosphate-buffered formalin or AFA fixative ([…], 2% formalin, 5% glacial acetic acid, 20% water), the latter for immunostaining. Samples were then decalcified in formic or acetic acid and paraffin embedded. Sections (5 μm) were stained with hematoxylin-eosin (H&E) using routine techniques. To stain cartilage proteoglycan, separate sections were stained with safranin O (Difco, Detroit, Mich.) for 1 min. as described previously (Issekutz, (2001). To assess microvessel density in the synovium, rabbit anti-mouse laminin polyclonal IgG antibody (Cedarlane Laboratories Limited, Homby, ON) was used to outline vessels, with detection using biotinylated goat anti-rabbit IgG antibody and avidin-biotin complexed with HRPO according to manufacturer's recommendations (Vectastain Elite ABC kit; Vector Laboratories Canada Inc., Burlington, ON).
Even by the H&E staining the cartilage damage is visible on the articular surfaces and margins. This is more profoundly illustrated by the safranin O staining with marked focal proteoglycan loss and fragmentation.

[6] = system: synovial microvessels; assay: Synovial vascularity by laminin immunostaining; type: in vivo, Rat (Lewis); details: between the various treatment groups and vehicle, any vessel size
Protocol: as §1
To assess synovial vascularity and angiogenesis, sections were immunostained for laminin to reliably delineate microvessels as well as medium-sized vessels. […] The other commonly used endothelial cell marker, CD31, was also evaluated on the synovial tissue. […] This vascularity was quantitated in synovia from rats treated with the various protocols and compared to vehicle-treated animals. […] Only vessels that were in cross-section were scored. […]

[7] = biological target: estrogen receptor β (Homo sapiens, UniProt Q92731); details: LaVallee et al. 2002; cited from earlier work
[8] = system: lymph node cells from rats with AA; assay: Lymph node cell proliferation in vitro (3H-thymidine incorporation)
Protocol: Because of the effect of 2ME2 treatment on arthritis severity and the response in the spleen during AA, the T lymphocyte reactivity to mitogens the Mycobacterial purified protein derivative (PPD) antigen was evaluated. […] The effect of various concentrations of 2ME2 in vitro on this proliferative response was evaluated. […] To further assess the effect of 2ME2 on lymphocyte responsiveness, lymph node cells harvested from rats treated with 2ME2 (30 mg/kg/d) from day 6-14 post-immunization were tested for proliferative response to PPD and the mitogens, Con A and PHA and compared to lymphocytes from vehicle-treated animals.

Chain of estrogen receptor β (Q92731 whole entry): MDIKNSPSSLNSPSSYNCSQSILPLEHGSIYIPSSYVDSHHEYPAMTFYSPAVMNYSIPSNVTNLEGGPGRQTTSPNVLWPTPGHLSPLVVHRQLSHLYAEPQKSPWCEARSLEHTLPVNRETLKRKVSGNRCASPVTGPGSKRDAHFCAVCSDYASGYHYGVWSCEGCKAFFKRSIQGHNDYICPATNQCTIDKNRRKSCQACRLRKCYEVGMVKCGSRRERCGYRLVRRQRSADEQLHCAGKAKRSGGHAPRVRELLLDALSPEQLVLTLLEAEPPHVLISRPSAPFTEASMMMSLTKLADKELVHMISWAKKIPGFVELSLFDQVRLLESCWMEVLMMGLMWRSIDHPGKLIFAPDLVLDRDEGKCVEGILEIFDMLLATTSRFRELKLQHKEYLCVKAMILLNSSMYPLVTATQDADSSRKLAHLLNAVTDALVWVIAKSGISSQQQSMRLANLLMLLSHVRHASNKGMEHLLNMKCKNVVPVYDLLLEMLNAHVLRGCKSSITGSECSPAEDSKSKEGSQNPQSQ

COc1cc2c(cc1O)CC[C@@H]1[C@@H]2CC[C@]2(C)[C@@H](O)CC[C@@H]12 [2ME2, 2-methoxyestradiol]
arthritic score ([1]; FIG. 1): decreases | synovial inflammation ([1]; FIG. 2, 100 mg/kg versus control): inhibits | periarticular inflammatory infiltrate and fibrosis ([1]; FIG. 3, 100 mg/kg versus control): inhibition | loss of proteoglycan in articular cartilage and induction of osteoclast activity ([1]; FIG. 4, 100 mg/kg versus control): prevents | severity of RA progression ([1]; FIG. 5): inhibit | percent inhibition of arthritic score ([1]; FIG. 7, 2ME2 in combination with methotrexate): unexpected increase | radiographic assessment ([1]; FIG. 8): radiographic evidence of 2ME2's anti-rheumatic effect | inhibition of clinical arthritic score, inflammation, cartilage degradation, bone resorption, and pannus formation ([1]; Study SMP04-040, 1, 10, 100 mg/kg/d PO, prevention (start 1 day after induction), Panzem NCD formulation): Dose-dependent | inhibition of clinical arthritic score, inflammation, cartilage degradation, bone resorption, and pannus formation ([1]; Study SMP05-009, 100 mg/kg/d, 100 mg/kg/week, 100 mg/kg twice a week PO, prevention): Regimen- | inhibition of clinical arthritic score, inflammation, cartilage degradation, bone resorption, and pannus formation ([1]; Study SMP05-010, 10, 25, 50, 75, 100 mg/kg/d PO, prevention): Dose-dependent | inhibition of clinical arthritic score upon combination of the two drugs ([1]; Study SMP05-046, 2ME2 10 or 100 mg/kg/d PO combined with MTX 0.1 or 1 mg/kg/d IP, prevention): Additive | pathology in the liver ([1]; Study SMP05-046, 2ME2 PO in combination with MTX IP): No pathology | pathology in the liver ([1]; Study SMP05-046, either drug alone (2ME2 10 or 100 mg/kg/d PO; MTX 0.1 or 1 mg/kg/d IP)): No pathology | Steady-state AUC0-24 ([2]; 25 mg/kg PO): 66 ng·h/mL | Steady-state AUC0-24 ([2]; 50 mg/kg PO): 117 ng·h/mL | inhibition of clinical arthritic score, inflammation, and bone destruction [3]: Dose dependent | PMNL migration to E. coli LPS ([4]; dermal sites, 2 h migration): did not affect | PMNL migration to complement chemotactic factor C5ades-arg ([4]; dermal sites, 2 h migration): did not affect | inhibition of PMNL migration to sites injected with rat TNF-α ([4]; either dose tested (30 or 100 mg/kg/d), starting at day 6 post-immunization): approximately 50% | inhibition of PMNL migration to sites injected with rat TNF-α ([4]; treatment delayed to day 10, tendency for inhibition): did not reach significance | articular cartilage surfaces and proteoglycan staining ([5]; 100 mg/kg/d initiated at day 6 post-immunization): preservation of articular cartilage surfaces and proteoglycan staining | leukocyte infiltration of the synovium ([5]; 100 mg/kg/d initiated at day 6 post-immunization, compared to vehicle): less intense leukocyte infiltration | cartilage preservation ([5]; treatment delayed to day 10): cartilage preservation was still observed | leukocyte cellularity in the synovium ([5]; treatment delayed to day 10): less noticeably affected | vessel density per 0.8 mm^2 (small, medium, large vessels) in synovium [6]: no significant difference | affinity for estrogen receptor β [7]: low affinity | IC50, lymphocyte response to PPD ([8]; 2ME2 added on day of culture initiation, 6 days): about 0.3 μg/mL | viability ([8]; all cultures): ≥ 85 % live cells | spontaneous proliferation in unstimulated cultures ([8]; in vitro): decreased | proliferation induced by the mitogens (Con A, PHA) ([8]; in vitro, compared with effect on PPD response): comparable inhibitory effect | effect on viability ([8]; lymph node cell cultures): no effect on viability
